From ChEMBL document CHEMBL1944509, “Methyl-monofluorination of ibuprofen selectively increases its inhibitory activity toward cyclooxygenase-1 leading to enhanced analgesic activity and reduced gastric damage in vivo” (Bioorg Med Chem Lett, 2011)
Calls of active or inactive are those of the source. The rule behind the calls is not given here.

Experiments:
[1] = biological target: T1, Prostaglandin G/H synthase 2 (Homo sapiens) (UniProt P35354); assay: Inhibition of human recombinant COX2 up to 1 mM by EIA
T1 sequence (whole entry): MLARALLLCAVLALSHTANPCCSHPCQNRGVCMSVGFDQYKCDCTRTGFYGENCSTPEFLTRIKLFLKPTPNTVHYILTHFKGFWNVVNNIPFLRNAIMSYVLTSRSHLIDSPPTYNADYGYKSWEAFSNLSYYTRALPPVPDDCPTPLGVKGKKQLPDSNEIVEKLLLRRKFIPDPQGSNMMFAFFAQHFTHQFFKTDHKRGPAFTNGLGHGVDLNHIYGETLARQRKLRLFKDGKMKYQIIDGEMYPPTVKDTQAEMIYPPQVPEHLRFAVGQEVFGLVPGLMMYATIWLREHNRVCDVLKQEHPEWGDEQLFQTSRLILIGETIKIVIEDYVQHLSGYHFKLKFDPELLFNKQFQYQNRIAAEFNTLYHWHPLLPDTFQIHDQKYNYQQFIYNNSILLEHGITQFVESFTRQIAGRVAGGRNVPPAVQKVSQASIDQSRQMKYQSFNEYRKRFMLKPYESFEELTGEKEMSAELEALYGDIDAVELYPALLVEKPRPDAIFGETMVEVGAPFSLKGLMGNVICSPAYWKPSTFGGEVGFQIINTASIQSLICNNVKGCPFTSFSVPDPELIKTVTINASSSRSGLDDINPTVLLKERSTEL

[2] = biological target: T2, Prostaglandin G/H synthase 1 (Ovis aries) (UniProt P05979); assay: Inhibition of ovine COX1 up to 1 mM by EIA
T2 sequence (whole entry): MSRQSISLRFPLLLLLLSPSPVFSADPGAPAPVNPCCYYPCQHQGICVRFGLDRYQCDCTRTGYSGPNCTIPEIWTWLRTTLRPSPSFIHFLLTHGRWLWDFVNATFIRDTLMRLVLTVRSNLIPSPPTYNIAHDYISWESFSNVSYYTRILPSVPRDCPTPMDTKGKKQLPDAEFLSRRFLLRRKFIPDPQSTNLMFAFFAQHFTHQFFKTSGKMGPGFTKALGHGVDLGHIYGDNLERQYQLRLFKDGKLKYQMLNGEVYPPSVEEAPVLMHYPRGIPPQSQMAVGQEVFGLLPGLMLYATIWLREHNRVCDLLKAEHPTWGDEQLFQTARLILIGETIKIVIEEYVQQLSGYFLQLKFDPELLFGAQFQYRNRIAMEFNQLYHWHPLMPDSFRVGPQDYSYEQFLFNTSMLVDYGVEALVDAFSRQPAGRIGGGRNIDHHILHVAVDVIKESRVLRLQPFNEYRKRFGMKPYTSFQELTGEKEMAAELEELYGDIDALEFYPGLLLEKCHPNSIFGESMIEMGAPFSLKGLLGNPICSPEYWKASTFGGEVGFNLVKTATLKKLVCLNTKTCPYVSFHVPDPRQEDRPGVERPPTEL

CC(C)Cc1ccc([C@@H](CF)C(=O)O)cc1
inhibition [1]: inactive
inhibition [2]: inactive
